Laboratory results: US20230054887A1, “SWEETENING AND TASTE-MASKING COMPOSITIONS, PRODUCTS AND USES THEREOF” (HEALTHTECH BIO ACTIVES, S.L.U., priority 2017, published 2023)

How the values were obtained:
Assay type in all cases: in vivo
[1] = Sweetening synergy sensory test: concentration equisweet to sucrose reference solutions in water, expert panel; conditions: for Relative sweetening power: ratio sucrose concentration / equisweet concentration; for Equisweet concentration: room temperature
Description: A sensory test was performed to assess the sweetening synergism achieved with the composition of the invention (Examples A and B), and this effect was also compared to the effect obtained with analogous compositions containing beta-cyclodextrin (Comparative Examples A and B). Further compositions of the present invention (Examples C, D and E) were also assessed in this sensory test.
A group of expert panellists in sweet descriptors evaluated the sweetness of the different compositions as well as that of the ingredients NHDC, beta-cyclodextrin and gamma-cyclodextrin used alone.
Each evaluated sweetening agent was dissolved in water at different concentrations, at room temperature. The panel then determined, for each product, the concentration that was equisweet to the reference solutions of 1% and 3% sucrose in water. The results are summarized in Table 3 (Examples A and B are abbreviated as Ex. A and Ex. B, respectively, and the Comparative Examples A and B are abbreviated as Comp. A and Comp. B, respectively).
Since beta- and gamma-cyclodextrins are also sweet compounds, the equisweet concentrations of both cyclodextrins were also determined by the test panel to assess their possible contribution to the sweetness of the composition. […] Therefore, as the equisweet concentrations of both cyclodextrins are at least three orders of magnitude larger than those of NHDC, it was concluded that their contribution to the sweetness was negligible.
A more quantitative evaluation of the sweetness synergy provided by the compositions of the present invention was performed by comparing the real measured sweetness of the compositions comprising gamma-cyclodextrin and NHDC with the theoretical sweetness expected from the sum of the individual contribution of each component in the composition.
To this end, the relative sweetening power of each component was first calculated. For comparative purposes, the relative sweetening power of beta-cyclodextrin was also calculated. The relative sweetening power of a given compound, at a given sweetness level, indicates how many times sweeter this compound is than sucrose. It is therefore calculated as the ratio between the concentration of sucrose and the equisweet concentration of each ingredient, for each sweetness level.
From the relative sweetening power of each ingredient, it is possible to calculate the expected sweetness (sucrose equivalence) of a blend of those ingredients, according to Formula I:
Expected sweetness (sucrose equivalence) of a blend C1+C2=Concentration of compound C1×relative sweetening power of compound C1+Concentration of compound C2×relative sweetening power of compound C2
Then, the sweetness synergy of a blend of components can be calculated according to Formula II: […]
As disclosed above in Example 3, the relative sweetening power of a given compound, at a given sweetness level, indicates how many times sweeter than sucrose the compound is, and the value is calculated as the ratio between the concentration of sucrose and the equisweet concentration of the compound.

[2] = Masking bitterness of paracetamol, calibrated test panel, equibitter solution; conditions: 5000 ppm paracetamol
Description: The bitter masking effect against paracetamol was assayed. The anti-bittering effect was measured as a dose-response profile vs. a solution of paracetamol.
The following substances were assayed: NHDC alone, gamma-cyclodextrin alone and compositions comprising NHDC and gamma-cyclodextrin in a molar ratio 1:3 (Example B), 1.5:1 (Example C), 1:6 (Example D) and 1:10 (Example E).
For evaluating the masking effect of each substance, several aqueous solutions were prepared, each containing 5000 ppm of paracetamol and different concentrations of the tested substance, namely, 5, 25, 50, 75 and 100 ppm.
A calibrated test panel compared each solution with several solutions of paracetamol in water at different concentrations, and determined the equibitter paracetamol solution. The equibitter solution was calculated as the average of all the evaluations of the panel.
The masking effect was then calculated from the reference amount of paracetamol contained in each tested solution (5000 ppm) and the amount of paracetamol in the equibitter solution, using the following formula (Formula III): […]
For calculating the masking synergies between gamma-cyclodextrin and NHDC, first, for each amount of the combination (Examples A-E), using the molecular weight of each component, the amounts of gamma-cyclodextrin and NHDC contained therein were calculated. For example, 100 ppm of Example B contain 13.61 ppm of NHDC and 86.39 ppm of gamma-cyclodextrin. Then, the antibittering contribution of each component in the composition was calculated, on the basis of the data of Table 13. For example, 13.61 ppm of NHDC provide 9.44% masking effect and 86.39 ppm of gamma-cyclodextrin provide 5.46% masking effect (the antibittering effects for each specific concentration was calculated by interpolation of the data points in Table 13). Therefore, the expected masking effect is calculated as the sum of the contributions of each component. For example, the expected masking effect of 100 ppm of Example B is 14.90 (i.e., 9.44 plus 5.46).
Finally, the masking synergy is calculated using Formula IV: […]
The masking effect of Examples C (NHDC:gCD 1.5:1), D (NHDC:gCD 1:6) and E (NHDC:gCD 1:10) was also evaluated. Aqueous solutions were prepared, each one of them containing 5000 ppm of paracetamol and different concentrations of each one of the tested formulations Ex. C-E, namely, 25 and 50 ppm. Results are disclosed in Tables 15 to 17.

[3] = Masking bitterness of quinine, test panel, equibitter solution; conditions: 250 ppm quinine
Description: The bitter masking effect against quinine was assayed, following an analogous procedure to the one used in Example 10 for paracetamol.
The following substances were assayed: NHDC alone, beta-cyclodextrin alone, a composition comprising NHDC and beta-cyclodextrin in a molar ratio 1:1 (Example F) and a composition comprising NHDC and beta-cyclodextrin in a molar ratio 1:3 (Example G).
Analogously to Example 10, several aqueous solutions were prepared, each containing 250 ppm of quinine and different concentrations of the tested substance, namely, 5, 25, 50, 75 and 100 ppm. For each tested solution, a test panel determined the equibitter quinine solution, and the masking effect was calculated using a formula analogous to formula III (substituting 5000 with […]).
The masking synergies between beta-cyclodextrin and NHDC in Examples F and G were calculated following an analogous procedure to the one disclosed in Example 10. Therefore, using the molecular weight of each component, the amounts of beta-cyclodextrin and NHDC contained in each amount of the combinations of Examples F and G were calculated and, then, the antibittering contribution of each component was calculated on the basis of the data of Table 19. The expected masking effect was calculated as the sum of the contributions of each component, and, finally, the masking synergy was calculated (using Formula IV).

[4] = Taste profile by calibrated taste panel at concentrations equisweet to 3% sucrose; conditions: 0- to 5-point scale
Description: The overall taste profile achieved with the sweetening composition of the present invention was evaluated and compared with the target taste profile of sucrose.
For this assay, all samples were evaluated at the same sweetness level, so each sample was used at a concentration which was equisweet to 3% sucrose. For each sample, the following parameters were evaluated: • Time to first sweetness detection • Time to maximum sweetness • Lingering (time for the sweetness to disappear) • Off-flavour: menthol, liquorice (any tastes that are different from sweetness) • Mouthfeel (density, i.e., the perceived viscosity in the mouth)
These evaluations were carried out by a calibrated taste panel, and conducted at room temperature.
Each of those parameters was evaluated on a 0- to 5-point scale. The values for sucrose were the reference, and were considered the target to emulate.

[5] = equisweet to 1% sucrose in water
[6] = equisweet to 3% sucrose in water

Question: With `OC[C@H]1O[C@@H]2O[C@H]3[C@H](O)[C@@H](O)[C@@H](O[C@H]4[C@H](O)[C@@H](O)[C@@H](O[C@H]5[C@H](O)[C@@H](O)[C@@H](O[C@H]6[C@H](O)[C@@H](O)[C@@H](O[C@H]7[C@H](O)[C@@H](O)[C@@H](O[C@H]8[C@H](O)[C@@H](O)[C@@H](O[C@H]9[C@H](O)[C@@H](O)[C@@H](O[C@H]1[C@H](O)[C@H]2O)O[C@@H]9CO)O[C@@H]8CO)O[C@@H]7CO)O[C@@H]6CO)O[C@@H]5CO)O[C@@H]4CO)O[C@@H]3CO` [gCD, gamma-cyclodextrin] as the compound, how does the Relative sweetening power ([1]; 1% sucrose level) read?
Answer: 0.4000

Question: What about the Relative sweetening power ([1]; 3% sucrose level) of the same compound?
Answer: 0.3529

Question: And the Equisweet concentration [1, 5]?
Answer: 25000 ppm

Question: What about the Equisweet concentration [1, 6] of the same compound?
Answer: 85000 ppm

Question: And the “Masking effect (real)” value ([2]; tested substance 5 ppm)?
Answer: 1.00%

Question: What about the “Masking effect (real)” value ([2]; tested substance 25 ppm) of the same compound?
Answer: 2.00%

Question: What about the “Masking effect (real)” value ([2]; tested substance 50 ppm) of the same compound?
Answer: 4.00%

Question: What about the “Masking effect (real)” value ([2]; tested substance 75 ppm) of the same compound?
Answer: 5.00%

Question: What about the “Masking effect (real)” value ([2]; tested substance 100 ppm) of the same compound?
Answer: 6.00%

Question: Which Relative sweetening power ([1]; 1% sucrose level) does the source give for `OC[C@H]1O[C@@H]2O[C@H]3[C@H](O)[C@@H](O)[C@@H](O[C@H]4[C@H](O)[C@@H](O)[C@@H](O[C@H]5[C@H](O)[C@@H](O)[C@@H](O[C@H]6[C@H](O)[C@@H](O)[C@@H](O[C@H]7[C@H](O)[C@@H](O)[C@@H](O[C@H]8[C@H](O)[C@@H](O)[C@@H](O[C@H]1[C@H](O)[C@H]2O)O[C@@H]8CO)O[C@@H]7CO)O[C@@H]6CO)O[C@@H]5CO)O[C@@H]4CO)O[C@@H]3CO` [bCD, Beta-Cyclodextrin] here?
Answer: 0.8333

Question: What about the Relative sweetening power ([1]; 3% sucrose level) of the same compound?
Answer: 0.4286

Question: And the Equisweet concentration [1, 5]?
Answer: 12000 ppm

Question: And the Equisweet concentration [1, 6]?
Answer: 70000 ppm

Question: What about the “Masking effect (real)” value ([3]; tested substance 5 ppm) of the same compound?
Answer: 0.00%

Question: And the “Masking effect (real)” value ([3]; tested substance 25 ppm)?
Answer: 6.67%

Question: What about the “Masking effect (real)” value ([3]; tested substance 50 ppm) of the same compound?
Answer: 11.67%

Question: What about the “Masking effect (real)” value ([3]; tested substance 75 ppm) of the same compound?
Answer: 16.67%

Question: And the “Masking effect (real)” value ([3]; tested substance 100 ppm)?
Answer: 13.33%

Question: Which Lingering [4] does the source give for `OC[C@H]1O[C@@](CO)(O[C@H]2O[C@H](CO)[C@@H](O)[C@H](O)[C@H]2O)[C@@H](O)[C@@H]1O` [Sucrose, sucrose] here?
Answer: 2.00

Question: What about the “Mouthfeel (density)” value [4] of the same compound?
Answer: 4.00

Question: And the “Off-flavour: menthol, licorice” value [4]?
Answer: 0.00

Question: And the “Time to first sweetness” value [4]?
Answer: 1.00

Question: And the “Time to maximum sweetness” value [4]?
Answer: 2.00

Question: And the Total sweetness [4]?
Answer: 5.00
